Patent publication US20050250819A1 (priority 2004, published 2005)

Tested on: Type III protein secretion of the chimeric SopE‘-’Bla polypeptide (SPI1 type III protein secretion system)
Test: Primary assay: Type III protein secretion of the chimeric SopE'-'Bla polypeptide by Salmonella enterica
Format: cell-based
Conditions: read-out: SopE IC50(μM)
Source text: Primary assay: Type III protein secretion of the chimeric SopE‘-’Bla polypeptide by Salmonella enterica. This procedure is a cell-based assay that measures the type III-dependent secretion by Salmonella enterica of a plasmid-encoded chimeric polypeptide whose synthesis can be regulated, and which is endowed with an enzymatic activity that can be monitored colorimetrically by hydrolysis of a substrate that is unable to penetrate into the bacterial cytoplasm within the time constraints of the reaction. Thus, the colormetric reaction is not influenced by SopE‘-’Bla polypeptide in the bacterial cytplasm. Instead, it effectively measures the amount of polypeptide that has been secreted from the S. enterica cytoplasm to the extracellular medium via type III system protein secretion.
The SopE‘-’Bla recombinant polypeptide consists of two functionally distinct domains spliced together. The N-terminus domain is encoded by a polynucleotide region specifying the signal for type III secretion of the SopE polypeptide of S. enterica, an effector of the SPI1 type III protein secretion system. The C-terminus domain of SopE‘-’Bla consists of a 263 amino acid peptide sequence that corresponds to the TEM-1 β-lactamase expressed by plasmid pBR322 but without its N-terminal signal sequence. The TEM-1 β-lactamase part of the SopE‘-’Bla chimeric polypeptide is used as a reporter enzyme. It is capable of hydrolyzing nitrocefin resulting in a product whose accumulation can be monitored by colorimetric detection. The secretion of the SopE‘-’Bla chimeric polypeptide from the cytoplasm to the extracellular medium is dependent on type III protein secretion.
For this procedure, cells grown under conditions known to favor a functional SPI1 secretion system are induced for expression of the SopE‘-’Bla protein and grown either in the presence or in the absence of putative inhibitors for determined time. Nitrocefin is then added to the various cultures and its hydrolysis are used for quantitation. An inhibitor of Type III protein secretion is generally a compound that reduces the signal of the enzymatic reaction by decreasing the amount of SopE‘-’Bla secreted into the extracellular medium.

Compared with `O=C(NC(COCc1ccccc1)C(=O)O)/C(=C\c1cccc(Oc2ccc(Cl)cc2)c1)NC(=O)c1ccc(C(F)(F)F)cc1` (stereo in doubt) [Compound 31, (S)-3-Benzyloxy-2-[3-[3-(4-chlorophenoxy)phenyl]-2-(4-trifluoromethyl-benzoylamino)acryloylamino]propionic acid], `O=C(NN(Cc1cccc(Oc2ccccc2)c1)C(=O)N[C@@H](COCc1ccccc1)C(=O)O)c1ccc(C(F)(F)F)cc1` [Compound 10, 4-Trifluoromethylbenzoic acid-N′-[(3-phenoxyphenyl)methyl]-N′-[[[(2-benzyloxy)-1-carboxyethyl]amino]carbonyl]hydrazide] is 2.9-fold higher in IC50: 7.7 µM for the first, 22 µM for the second. The first is the more potent here.

Compared with `COc1ccc(/C=C(/NC(=O)c2ccc(-c3ccccc3)cc2)C(=O)N[C@@H](Cc2ccc(Cl)cc2)C(=O)O)cc1OC` (stereo in doubt) [Compound 50, 2-[2-[(Biphenyl-4-carbonyl)amino]-3-(3,4-dimethoxyphenyl)acryloylamino]-3-(4-chlorophenyl)propionic acid], `O=C(NC(Cc1ccc(Cl)cc1)C(=O)O)/C(=C\c1ccc(Cl)c(C(F)(F)F)c1)CC(=O)c1ccc(-c2ccccc2)cc1` (stereo not drawn) [Compound 5, 2-[2-(2-Biphenyl-4-yl-2-oxoethyl)-3-(4-chloro-3-trifluoromethylphenyl)-acryloylamino]-3-(4-chlorophenyl)propionic acid] is 99-fold lower in IC50: 79.4 µM for the first, 0.8 µM for the second.

`O=C(O)[C@H](Cc1ccc(Cl)cc1)NC(=O)N(CCc1ccc(-c2ccccc2)cc1)Cc1ccc(Cl)c(Cl)c1` (stereo in doubt) [Compound 86, 2-[3-(2-Biphenyl-4-yl-ethyl)-3-(3,4-dichlorobenzyl)ureido]-3-(4-chlorophenyl)-propionic acid] and `O=C(NC(Cc1ccc(Cl)cc1)C(=O)O)/C(=C\c1cccc(C(F)(F)F)c1)CC(=O)c1ccc(-c2ccccc2)cc1` (stereo not drawn) [Compound 4, 2-[2-(2-Biphenyl-4-yl-2-oxoethyl)-3-(3-trifluoromethylphenyl)acryloylamino]-3-(4-chlorophenyl)propionic acid] are the same in IC50: 1.1 µM for the first, 1.1 µM for the second.

Going from `O=C(NCC1CCCO1)/C(=C\c1ccc(-c2ccccc2)cc1)NC(=O)c1ccc(C(F)(F)F)cc1` (stereo not drawn) [Compound 2, N-{2-Biphenyl-4-yl-1-[(tetrahydro-furan-2-yl-methyl)carbamyl]vinyl}-4-trifluoromethylbenzamide] to `O=C(N[C@@H](CSCc1ccccc1)C(=O)O)/C(=C\c1cccc2ccccc12)NC(=O)c1ccc(C(F)(F)F)cc1` [Compound 3, (R)-3-Benzylsulfanyl-2-[3-naphthalen-1-yl-2-(4-trifluoromethylbenzoylamino)-acryloylamino]propionic acid], the IC50 falls from 69 µM to 30.3 µM (2.3-fold).

`O=C(NN(Cc1ccc(-c2ccccc2)cc1)C(=O)N[C@@H](CSCc1ccccc1)C(=O)O)c1ccc(C(F)(F)F)cc1` [Compound 8, 4-Trifluoromethylbenzoic acid-N′-[(biphenyl-4-yl)methyl]-N′-[[[(2-benzylthio)-1-carboxyethyl]amino]carbonyl]hydrazide] and `O=C(NN(Cc1ccc(Oc2ccccc2)cc1)C(=O)N[C@@H](CSCc1ccccc1)C(=O)O)c1ccc(C(F)(F)F)cc1` [Compound 12, 4-Trifluoromethylbenzoic acid-N′-[(4-phenoxyphenyl)methyl]-N′-[[[(2-benzylthio)-1-carboxyethyl]amino]carbonyl]hydrazide] are within 1.5-fold of each other in IC50: 10 µM for the first, 12.5 µM for the second.

First: O=C(NN(Cc1cccc(Oc2ccccc2)c1)C(=O)N[C@@H](CSCc1ccccc1)C(=O)O)c1ccc(C(F)(F)F)cc1 [Compound 9, 4-Trifluoromethylbenzoic acid-N′-[(3-phenoxyphenyl)methyl]-N′-[[[(2-benzylthio)-1-carboxyethyl]amino]carbonyl]hydrazide]
Second: O=C(NN(Cc1ccc(OC(F)(F)F)cc1)C(=O)N[C@@H](CSCc1ccccc1)C(=O)O)c1ccc(C(F)(F)F)cc1 [Compound 11, 4-Trifluoromethylbenzoic acid-N′-[(4-trifluoromethoxyphenyl)methyl]-N′-[[[(2-benzylthio)-1-carboxyethyl]amino]carbonyl]hydrazide]
The IC50 of the first is 3.3-fold lower: 15 µM for the first, 49 µM for the second. The first is the more potent here.
